# From paper PMC11768591 (Pharmaceutics, 2024)
# Tests used:
# [1] = system: inflammation induced by Freund's complete adjuvant; assay: CFA-induced inflammation, paw volume by plethysmometer; type: in vivo, Male Wistar rats; settings: rat
# Procedure: (§1) The drugs were prepared fresh at the desired dose before administration. […] In the CFA-induced inflammation model, the rats were briefly anesthetized with isoflurane, via nose cone, titrated to the lowest dose necessary to achieve non-response to distal tail pinch. […] In both models, the paw volume was measured by a digital plethysmometer 7150 (Ugo Basile, Varese, Italy). To measure volume, the injected paw was marked around 1 cm above the tibiotarsal joint with an indelible pen. The paw was immersed up to the mark every time. […] In the […] studies, data were expressed as the average ± S.E.M. of 6 animals per experimental group. For the inflammation and hyperalgesia experiments, time courses of volume change (ΔV in μL) versus time (h) or paw withdrawal latency time (s) versus time (h) were generated, respectively. From the time courses, the area under the curve (AUC) was calculated using the trapezoidal rule as a measure of the duration and intensity of the effects observed with the different treatments. Then, AUC was employed to construct dose-response curves and to compare the different treatments.
# [2] = system: inflammation induced by carrageenan; assay: Carrageenan-induced inflammation, paw volume by plethysmometer; type: in vivo, Male Wistar rats; settings: rat
# Procedure: as §1
# [3] = Solubility in distilled water at 37.5 °C (supersaturated, UV/Vis 420 nm); type: physicochemical
# Procedure: (§2) Then, 200 µL aliquots were taken for 1, 5, 10, 30 and 60 min. […] The solubility tests were performed in triplicate.
# [4] = Solubility in phosphate buffer pH 6.8 at 37.5 °C (supersaturated, UV/Vis 420 nm); type: physicochemical
# Procedure: as §2
# [5] = system: CFA-induced thermal hyperalgesia; assay: CFA-induced thermal hyperalgesia, paw withdrawal latency; type: in vivo, Male Wistar rats; settings: rat, single oral dose 100 mg/kg
# Procedure: (§3) CFA was administered at a concentration of 1 mg/mL and was previously dissolved in a mixture of paraffin oil (85%) and mannard monooleate (15%), whereas carrageenan was dissolved in an isotonic saline solution at 1%. The drugs were prepared fresh at the desired dose before administration.
# (§4) The antihyperalgesic effect of the co-amorphous compound was evaluated using the thermal hyperalgesia model described by Dirig et al., with slight modifications. In this model, the rats were placed in acrylic observation chambers on a thin transparent glass plate maintained at a constant temperature of 30 °C. After a 30 min acclimatization period in the chambers, the animals received an intra-articular injection of 100 µL of CFA (1 mg/mL) or an intra-plantar injection of 50 µL of 1% carrageenan. Paw withdrawal latency to the thermal stimulus was measured before and 1, 2, 3, 4, 5 and 6 h after injection of CFA or carrageenan. To avoid tissue damage, a cutoff time of 20 s was used.
# (§5) In the preclinic studies, data were expressed as the average ± S.E.M. of 6 animals per experimental group. […] From the time courses, the area under the curve (AUC) was calculated using the trapezoidal rule as a measure of the duration and intensity of the effects observed with the different treatments. […]
# [6] = system: carrageenan-induced thermal hyperalgesia; assay: Carrageenan-induced thermal hyperalgesia, paw withdrawal latency; type: in vivo, Male Wistar rats; settings: rat, single oral dose 100 mg/kg
# Procedure: as §3, §4, §5
# [7] = phosphate buffer at pH 7.2; cited from earlier work
# [8] = single oral dose 100 mg/kg (mixture: curcumin 51.4 mg/kg + L-arginine 48.6 mg/kg)
# [9] = oral 100–320 mg/kg, 1 h before CFA
# [10] = oral 100–320 mg/kg, 1 h before carrageenan
Structure (SMILES),"effect on CFA-induced inflammation (paw volume change, AUC) [1, 8]","effect on carrageenan-induced inflammation (paw volume change, AUC) [2, 8]",solubility in distilled water ([3]; after 60 min),"solubility at 1 min ([3]; distilled water, water, thermodynamic from solid, after 1 min)","solubility at 60 min ([4]; pH 6.8, after 60 min)","solubility at 1 min ([4]; pH 6.8, aqueous buffer, thermodynamic from solid, after 1 min)","effect on CFA-induced inflammation (paw volume change, AUC) [1, 9]","effect on carrageenan-induced inflammation (paw volume change, AUC) [2, 10]","antihyperalgesic effect, CFA-induced thermal hyperalgesia (paw withdrawal latency) [5]","antihyperalgesic effect, carrageenan-induced thermal hyperalgesia (paw withdrawal latency) [6]",half-life in solution [7]
O=C(O)Cc1ccccc1Nc1c(Cl)cccc1Cl [diclofenac],have anti-inflammatory effects,have anti-inflammatory effects,–,–,–,–,–,–,–,–,–
COc1cc(/C=C/C(=O)CC(=O)/C=C/c2ccc(O)c(OC)c2)ccc1O [curcumin],–,–,0.43 µg/mL,0.03 µg/mL,3.75 µg/mL,1.36 µg/mL,failed to reverse the inflammatory effects,failed to reverse the inflammatory effects,"not curcumin or L-arginine, significantly increased the latency time",antinociceptive effects that were statistically different from the vehicle group,around 10 min
N=C(N)NCCC[C@H](N)C(=O)O [L-arginine],–,–,–,–,–,–,failed to reverse the inflammatory effects,failed to reverse the inflammatory effects,"not curcumin or L-arginine, significantly increased the latency time",antinociceptive effects that were statistically different from the vehicle group,–
